“Also recorded” adds a separate entry of the source.
How the values were obtained:
[1] = system: EAE mice; assay: Experimental autoimmune encephalomyelitis (EAE) model; assay type: in vivo, mouse
[2] = system: human CD4+ naive T cells; assay: Cell viability by 7-AAD staining; assay type: cell-based; details: Bi2 10 μM, 4 days
Experimental: To analyze T cell proliferative capacity, purified isolated human CD4+ T cells were labeled with 1 μM carboxyfluorescein succinimidyl ester (CFSE; Invitrogen, Waltham, MA, USA) and then stimulated with anti-CD3/CD28 antibody coated microbeads for 4 days at 37° C. Cells were stained with 7AAD (BD Biosciences) for 10 minutes to distinguish dead cells and the extent of CFSE dilution in 7AAD-cells was measured by BD LSRFortessa to analyze proliferative capacity. Antibodies listed in Table 2 and previously known BD LSRFortessa cell analyzers were used.

[3] = system: SKG mice; assay: Curdlan-induced arthritis in SKG mice; assay type: in vivo, mouse
Experimental: Eight-week-old female SKG mice used for induction of autoimmune arthritis [e.g., Rheumatoid Arthritis (RA)] were purchased from CLEA Japan (Tokyo, Japan). All mice were bred and managed in a sterile facility at Seoul National University School of Medicine. All experiments were approved by Seoul National University Institutional Animal Experimentation Ethics Committee (IACUC) (approval number: SNU-230825-2-2). At 8 weeks of age, 3 mg/mice curdlan (Wako, Japan) in 300 μl sterile PBS was injected intraperitoneally (i.p.) into mice. Ankle thickness was measured using calipers (Manostat, New York, NY). […] 0 point: no joint swelling; 0.1 point: single finger joint swelling; 0.5 point: minor swelling of wrist, ankle or tail base; 1.0 point: severe swelling of […], […] or tail base. Scores for all joints of each mouse were summed. Mice were euthanized at the end of the experiment and immune cells were extracted from inguinal lymph nodes (inguinal LNs) and joint cells.

[4] = system: HIF-1α; assay: HIF-1α immunoblot in TCR-stimulated CD4+ memory T cells; assay type: cell-based, human; details: TCR-stimulated CD4+ memory T cells; Bi2 10 μM, CoCl2 100 μM, VH298 100 μM, MG132 5 μM
Experimental: Cells were cultured in radioimmunoprecipitation assay (RIPA) buffer (150 mM NaCl, 10 mM Na2HPO4, pH 7.2, 1% Nonidet P-40, 0.5% deoxycholate) containing phenylmethylsulfonyl fluoride (PMSF; Millipore Sigma, Burlington, MA), EDTA, protease and phosphatase inhibitor cocktail (Thermo Fisher Scientific) to extract total protein. Proteins were separated on 8-10% SDS-polyacrylamide gels and blotted onto polyvinylidene difluoride (PVDF) membranes (Bio-Rad, Hercules, CA) followed by 5% BSA in Tris buffered saline (TBS) with 0.1% Tween 20 and blocked for 1 hour. Membranes were cultured overnight with anti-human SLC7A5, anti-BCAT, anti-phospho-p70S6K, anti-p70S6K, anti-HIF-1α (all provided by Cell Signaling Technology, Danvers, MA) primary antibodies at 4° C., followed by culture with HRP-conjugated secondary antibodies for 1 hour at room temperature. Membranes were developed using SuperSignal West Femto Maximum Sensitivity Substrate or SuperSignal West Pico PLUS Chemiluminescent Substrate system (Thermo Fisher Scientific).

[5] = system: HIF-1α; assay: HIF-1α expression in TCR-stimulated mouse iLN cells; assay type: cell-based; details: Bi2 10 μM, 24 hours
Experimental: Blocking BCAT1 with Bi2 attenuates Th17 differentiation in mice. In FIG. 13A mRNA expression of slc7a5 and bcat1 in mouse inguinal LN (iLN) cells was analyzed by RT-qPCR at 24 hours after TCR stimulation with anti-CD3/CD28 antibody (n=5). In FIG. 13B protein expression of BCAT1 in mouse inguinal LN cells was analyzed at 24 hours after stimulation of TCR with anti-CD3/CD28 antibody (n=5). In FIGS. 13C to 13D, mouse CD4^+ naive T cells derived from iLN were differentiated under […] or Th1 polarization conditions for 5 days in the presence of Bi2 (10 μM). The amounts of IFN-γ (c) and IL-17A (d) in the culture supernatants of Th1 and Th17 cells (n=5) are shown. In FIG. 13E, the cells of mouse iLN were stimulated with anti CD3/CD28 antibody in the presence of Bi2 (10 μM) for 24 hours. Cell lysates were immunoblotted for HIF-1α (n=3 independent experiments). Cells treated with COCl2 served as a positive control for HIF-1α. […] FIG. 13F is a representative histogram plot of intracellular HIF-1α in cells of mouse iLN. Cells were stimulated with anti CD3/CD28 antibody in the presence of Bi2 (10 μM) for 24 hours. […] The significance was indicated as *=p<0.05, **=p<0.01, ***=p<0.001, according to Mann-Whitney U test (a, c, d, f) or the two-tailed non-pair t test (b, e)).

[6] = Bi2 10 mg/kg or LβhL 1 g/kg i.p.
[7] = Bi2 10 mg/kg or LβhL 1 g/kg i.p., 10 mg/kg
[8] = Bi2 i.p. twice a week for 3 weeks

O=C(NNS(=O)(=O)c1ccccc1C(F)(F)F)c1cc2cc(Cl)ccc2o1 [Bi2, BCATc inhibitor 2]
HIF-1α expression in SCMC (immunoblot) ([1]; Bi2 10 mg/kg i.p.): decreased
absolute number of Th17 cells co-producing IFN-γ/IL-17A ([1]; Bi2 10 mg/kg i.p.): significantly reduced
absolute number of spinal cord mononuclear cells (SCMC) ([1]; Bi2 10 mg/kg i.p.): significantly lower
proportion of CD4+ T-cells in SCMC ([1]; Bi2 10 mg/kg i.p.): significantly lower
relative proportion of Th17 cells co-producing IFN-γ/IL-17A ([1]; Bi2 10 mg/kg i.p.): did not change
cell infiltration in spinal cord [1, 6]: decrease
nerve damage, spinal cord histology [1, 6]: decrease
CD4+ T-cells producing IL-17A in spinal cord infiltrates and draining LN [1, 7]: preferentially reduced
HIF-1α expression in CD4+ T-cells of spinal cord (intracellular staining) [1, 7]: preferentially in CD4+ T-cells in SCMC but not in CD11b+F4/80+ macrophages; also recorded: reduced
EAE clinical score / severity ([1]; i.p. three times a week for 14 days, Bi2 10 mg/kg, LβhL 1 g/kg, 10 mg/kg): significantly lower; also recorded: alleviating the severity of disease
viability of activated CD4+ naive T cells [2]: no significant effect
ifng, tgfb1 expression in synovial cells [3, 8]: significantly reduced
ratio of Th17 cells in CD3+CD4+ T cells in inguinal lymph nodes [3, 8]: significantly reduced
arthritis score ([3]; Bi2 i.p. twice a week for 3 weeks after curdlan): significantly lower; also recorded: alleviates
HIF-1α protein expression [4]: significantly inhibited
TCR-induced HIF-1α expression in mouse LN T cells [5]: reduced

— US20260076937A1, “COMPOSITION FOR PREVENTING OR TREATING AUTOIMMUNE DISEASES COMPRISING A BCAT1 INHIBITOR” (Seoul National University R&DB Foundation, priority 2024, published 2026)
